PMC11898752, “Functional Characterization of β-Glucuronidase Genes Involved in Baicalein Biosynthesis from Scutellaria baicalensis Based on Transcriptome Analysis” (International Journal of Molecular Sciences, 2025)

Tests used:
GUS1 = system: T1, GUS1; experiment: HPLC of baicalein formed, Hanes-Woolf plot; type: biochemical, Scutellaria baicalensis; details: PBS pH 9, 45 °C, 40 min
T1 construct: full-length ORF in pEASY-Blunt E1, His-tag purified from E. coli BL21(DE3), about 60 kDa on SDS-PAGE

GUS2 = system: T2, GUS2; experiment: HPLC of baicalein formed, Hanes-Woolf plot; type: biochemical, Scutellaria baicalensis; details: PBS pH 9, 45 °C, 40 min
T2 construct: full-length ORF in pEASY-Blunt E1, His-tag purified from E. coli BL21(DE3), about 55 kDa on SDS-PAGE

Km (GUS1): 0.2826 mg/mL
Km (GUS2): 0.2732 mg/mL
SMILES: O=C(O)[C@H]1O[C@@H](Oc2cc3oc(-c4ccccc4)cc(=O)c3c(O)c2O)[C@H](O)[C@@H](O)[C@@H]1O [baicalin]
